Data published in ChEMBL document CHEMBL5625247, “Tetrahydro-β-carboline derivatives as potent histone deacetylase 6 inhibitors with broad-spectrum antiproliferative activity” (Eur J Med Chem, 2023).
pIC50: −log10 of the molar value. Activity calls are given as the source filed them. The calls are words filed in the database; no cut-off is given here.

Experiments:
[1] = target: Polyamine deacetylase HDAC10 (Homo sapiens, UniProt Q969S8); test: Inhibition of HDAC10 (unknown origin) TR-FRET assay; parameters: species or system Sf9
[2] = target: T1, Protein deacetylase HDAC6 (Homo sapiens, UniProt Q9UBN7); test: Inhibition of HDAC6 (unknown origin) expressed in baculovirus infected in Sf9 cells using RHKKAc as substrate preincubated for 5 to 10 mins followed by substrate addition measured after 2 hrs by fluorescence based assay
T1 sequence (Q9UBN7 whole entry): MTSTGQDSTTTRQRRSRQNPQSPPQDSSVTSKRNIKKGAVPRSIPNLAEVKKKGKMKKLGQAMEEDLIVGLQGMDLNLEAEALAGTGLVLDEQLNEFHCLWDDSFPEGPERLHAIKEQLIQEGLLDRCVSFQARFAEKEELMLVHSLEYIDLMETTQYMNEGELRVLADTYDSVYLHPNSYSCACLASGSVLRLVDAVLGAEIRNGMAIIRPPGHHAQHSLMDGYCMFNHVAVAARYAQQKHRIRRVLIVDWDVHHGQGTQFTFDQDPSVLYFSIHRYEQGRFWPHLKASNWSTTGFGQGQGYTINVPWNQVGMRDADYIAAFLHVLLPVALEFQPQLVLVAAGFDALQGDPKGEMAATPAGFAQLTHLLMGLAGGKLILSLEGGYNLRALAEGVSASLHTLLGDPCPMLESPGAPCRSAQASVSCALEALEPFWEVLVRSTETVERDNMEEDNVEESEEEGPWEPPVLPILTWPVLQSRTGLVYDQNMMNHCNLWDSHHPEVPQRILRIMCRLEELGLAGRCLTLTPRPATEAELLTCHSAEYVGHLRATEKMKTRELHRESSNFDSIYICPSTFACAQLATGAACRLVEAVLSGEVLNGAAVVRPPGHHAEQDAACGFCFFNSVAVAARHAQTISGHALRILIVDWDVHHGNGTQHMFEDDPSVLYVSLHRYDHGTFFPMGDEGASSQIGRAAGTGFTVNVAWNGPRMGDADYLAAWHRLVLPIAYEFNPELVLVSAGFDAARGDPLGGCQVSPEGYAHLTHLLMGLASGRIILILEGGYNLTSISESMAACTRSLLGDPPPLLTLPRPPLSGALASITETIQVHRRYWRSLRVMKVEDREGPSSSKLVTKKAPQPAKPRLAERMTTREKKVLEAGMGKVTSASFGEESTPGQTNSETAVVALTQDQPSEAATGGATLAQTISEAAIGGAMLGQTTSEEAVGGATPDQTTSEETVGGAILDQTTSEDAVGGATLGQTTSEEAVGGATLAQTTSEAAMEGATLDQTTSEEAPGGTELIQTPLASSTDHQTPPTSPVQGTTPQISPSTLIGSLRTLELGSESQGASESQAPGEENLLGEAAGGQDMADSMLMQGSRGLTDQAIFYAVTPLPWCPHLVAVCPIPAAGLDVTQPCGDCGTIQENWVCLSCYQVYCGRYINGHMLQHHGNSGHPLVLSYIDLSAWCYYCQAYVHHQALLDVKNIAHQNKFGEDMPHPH

Histone deacetylase 2 = Histone deacetylase 2 (Homo sapiens, UniProt Q92769); type: cell-based, Sf9
Histone deacetylase 4 = Histone deacetylase 4 (Homo sapiens, UniProt P56524); test: Inhibition of HDAC4 (unknown origin) expressed in baculovirus infected in Sf9 cells using RHKKAc as substrate preincubated for 5 to 10 mins followed by substrate addition measured after 2 hrs by fluorescence based assay
Histone deacetylase 5 = Histone deacetylase 5 (Homo sapiens, UniProt Q9UQL6); test: Inhibition of HDAC5 (unknown origin) expressed in baculovirus infected in Sf9 cells using RHKKAc as substrate preincubated for 5 to 10 mins followed by substrate addition measured after 2 hrs by fluorescence based assay
Histone deacetylase 8 = Histone deacetylase 8 (Homo sapiens, UniProt Q9BY41); test: Inhibition of HDAC8 (unknown origin) expressed in baculovirus infected in Sf9 cells using RHKKAc as substrate preincubated for 5 to 10 mins followed by substrate addition measured after 2 hrs by fluorescence based assay
Histone deacetylase 9 = Histone deacetylase 9 (Homo sapiens, UniProt Q9UKV0); test: Inhibition of HDAC9 (unknown origin) expressed in baculovirus infected in Sf9 cells using RHKKAc as substrate preincubated for 5 to 10 mins followed by substrate addition measured after 2 hrs by fluorescence based assay
[3] = target: T2, Protein deacetylase HDAC6 (Homo sapiens) (UniProt Q9UBN7); test: Inhibition of HDAC6 in human RPMI-8226 cells assessed as increase in histone H3 acetylation at 1 to 10 uM incubated for 24 hrs by Western blot analysis; type: cell-based; conditions: dose 1-10 µM
T2 sequence (whole entry): T1 sequence (Q9UBN7 whole entry)

[4] = Cmax in Sprague-Dawley rat at 0.2 mg/kg, iv by LC-MS/MS analysis; type: ADME, organism-based; conditions: in vivo
[5] = Clearance in Sprague-Dawley rat at 0.2 mg/kg, iv by LC-MS/MS analysis; type: ADME, organism-based; conditions: in vivo
[6] = Volume of distribution at steady state in Sprague-Dawley rat at 0.2 mg/kg, iv by LC-MS/MS analysis; type: ADME, organism-based; conditions: in vivo, read-out: Vdss
[7] = AUC (0 to last) in Sprague-Dawley rat at 0.2 mg/kg, iv by LC-MS/MS analysis; type: ADME, organism-based; conditions: in vivo
[8] = Cmax in Sprague-Dawley rat at 3 mg/kg, po by LC-MS/MS analysis; type: ADME, organism-based; conditions: in vivo
[9] = AUC (0 to infinity) in Sprague-Dawley rat at 3 mg/kg, po by LC-MS/MS analysis; type: ADME, organism-based; conditions: in vivo
[10] = AUC (0 to last) in Sprague-Dawley rat at 3 mg/kg, po by LC-MS/MS analysis; type: ADME, organism-based; conditions: in vivo
[11] = Half life in Sprague-Dawley rat at 3 mg/kg, po by LC-MS/MS analysis; type: ADME, organism-based; conditions: in vivo
[12] = Oral bioavailability in Sprague-Dawley rat at 3 mg/kg by LC-MS/MS analysis; type: ADME, organism-based; conditions: in vivo

Histone deacetylase 9, sequence (Q9UKV0 whole entry): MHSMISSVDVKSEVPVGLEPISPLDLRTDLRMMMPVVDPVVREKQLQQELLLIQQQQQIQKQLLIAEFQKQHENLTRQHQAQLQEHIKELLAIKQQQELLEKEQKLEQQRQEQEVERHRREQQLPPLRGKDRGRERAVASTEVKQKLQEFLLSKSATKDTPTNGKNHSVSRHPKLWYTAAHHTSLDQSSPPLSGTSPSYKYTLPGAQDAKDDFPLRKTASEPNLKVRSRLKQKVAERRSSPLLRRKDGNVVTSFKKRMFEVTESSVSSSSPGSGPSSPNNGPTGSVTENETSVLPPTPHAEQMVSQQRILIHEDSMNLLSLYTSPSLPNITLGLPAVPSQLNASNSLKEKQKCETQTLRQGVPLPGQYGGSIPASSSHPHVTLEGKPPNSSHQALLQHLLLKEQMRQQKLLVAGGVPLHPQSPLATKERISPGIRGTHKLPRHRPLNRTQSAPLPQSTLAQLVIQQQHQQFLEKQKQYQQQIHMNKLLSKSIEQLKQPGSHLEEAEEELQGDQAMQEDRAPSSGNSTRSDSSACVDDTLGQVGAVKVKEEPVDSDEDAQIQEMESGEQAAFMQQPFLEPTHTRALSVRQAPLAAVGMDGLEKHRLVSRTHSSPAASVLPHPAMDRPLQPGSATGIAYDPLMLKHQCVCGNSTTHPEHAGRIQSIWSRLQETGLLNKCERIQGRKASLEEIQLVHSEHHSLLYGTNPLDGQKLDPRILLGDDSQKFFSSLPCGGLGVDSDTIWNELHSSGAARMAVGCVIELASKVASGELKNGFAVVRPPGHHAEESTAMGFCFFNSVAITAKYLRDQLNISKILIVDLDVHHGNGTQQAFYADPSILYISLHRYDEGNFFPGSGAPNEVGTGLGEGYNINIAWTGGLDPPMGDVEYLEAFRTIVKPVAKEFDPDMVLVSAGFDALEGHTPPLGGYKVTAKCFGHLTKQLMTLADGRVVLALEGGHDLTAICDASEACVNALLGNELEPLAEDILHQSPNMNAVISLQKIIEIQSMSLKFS
Histone deacetylase 8, sequence (Q9BY41 whole entry): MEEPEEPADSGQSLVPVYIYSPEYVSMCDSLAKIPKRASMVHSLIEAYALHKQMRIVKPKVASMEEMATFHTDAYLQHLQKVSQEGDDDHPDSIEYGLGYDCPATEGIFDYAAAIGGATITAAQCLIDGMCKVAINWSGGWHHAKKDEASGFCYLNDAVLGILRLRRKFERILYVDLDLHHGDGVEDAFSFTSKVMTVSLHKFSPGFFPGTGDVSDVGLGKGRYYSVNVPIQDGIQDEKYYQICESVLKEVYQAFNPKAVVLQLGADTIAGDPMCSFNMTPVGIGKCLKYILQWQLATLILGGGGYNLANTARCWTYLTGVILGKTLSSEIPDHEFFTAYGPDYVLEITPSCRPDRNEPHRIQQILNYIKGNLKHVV
Histone deacetylase 4, sequence (P56524 whole entry): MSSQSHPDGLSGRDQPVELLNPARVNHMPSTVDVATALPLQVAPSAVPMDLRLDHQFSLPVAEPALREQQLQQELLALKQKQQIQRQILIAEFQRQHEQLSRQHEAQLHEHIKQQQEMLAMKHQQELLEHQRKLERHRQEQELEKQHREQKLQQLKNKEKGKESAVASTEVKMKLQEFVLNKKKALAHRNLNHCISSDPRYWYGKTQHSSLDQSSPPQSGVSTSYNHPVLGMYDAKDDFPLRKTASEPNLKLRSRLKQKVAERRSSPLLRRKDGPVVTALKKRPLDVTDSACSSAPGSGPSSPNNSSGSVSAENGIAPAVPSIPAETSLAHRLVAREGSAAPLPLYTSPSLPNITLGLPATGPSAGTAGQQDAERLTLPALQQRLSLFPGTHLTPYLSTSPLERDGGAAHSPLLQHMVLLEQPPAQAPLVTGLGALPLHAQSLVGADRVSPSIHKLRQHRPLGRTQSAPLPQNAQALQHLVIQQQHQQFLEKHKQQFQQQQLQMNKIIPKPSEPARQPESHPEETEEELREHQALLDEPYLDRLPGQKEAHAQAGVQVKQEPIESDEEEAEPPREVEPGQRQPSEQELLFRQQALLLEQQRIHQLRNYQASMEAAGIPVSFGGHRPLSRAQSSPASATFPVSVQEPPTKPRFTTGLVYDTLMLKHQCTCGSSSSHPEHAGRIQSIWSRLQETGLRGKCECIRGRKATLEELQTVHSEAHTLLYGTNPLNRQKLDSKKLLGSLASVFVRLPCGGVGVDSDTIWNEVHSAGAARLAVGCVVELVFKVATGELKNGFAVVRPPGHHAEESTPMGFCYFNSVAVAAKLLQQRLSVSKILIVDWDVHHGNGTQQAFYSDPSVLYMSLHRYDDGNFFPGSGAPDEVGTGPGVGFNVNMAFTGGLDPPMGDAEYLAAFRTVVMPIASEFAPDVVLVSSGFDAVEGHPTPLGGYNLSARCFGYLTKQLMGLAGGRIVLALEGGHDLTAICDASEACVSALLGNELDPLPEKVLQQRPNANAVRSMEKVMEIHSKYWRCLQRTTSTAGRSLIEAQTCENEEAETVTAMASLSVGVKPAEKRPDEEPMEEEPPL
Histone deacetylase 2, sequence (Q92769 whole entry): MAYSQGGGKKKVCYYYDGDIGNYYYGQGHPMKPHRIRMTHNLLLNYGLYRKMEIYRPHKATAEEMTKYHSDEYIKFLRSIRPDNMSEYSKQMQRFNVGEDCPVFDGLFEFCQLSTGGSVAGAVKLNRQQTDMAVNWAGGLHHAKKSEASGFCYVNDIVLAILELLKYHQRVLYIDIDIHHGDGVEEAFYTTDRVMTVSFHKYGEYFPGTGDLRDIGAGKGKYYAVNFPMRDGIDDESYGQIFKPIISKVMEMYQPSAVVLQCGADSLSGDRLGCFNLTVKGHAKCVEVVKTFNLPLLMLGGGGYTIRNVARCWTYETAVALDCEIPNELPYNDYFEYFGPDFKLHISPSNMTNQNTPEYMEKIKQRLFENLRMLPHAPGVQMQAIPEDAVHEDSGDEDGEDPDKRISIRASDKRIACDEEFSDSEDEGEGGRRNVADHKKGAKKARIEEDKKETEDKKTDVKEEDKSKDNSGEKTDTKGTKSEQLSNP
Polyamine deacetylase HDAC10, sequence (Q969S8 whole entry): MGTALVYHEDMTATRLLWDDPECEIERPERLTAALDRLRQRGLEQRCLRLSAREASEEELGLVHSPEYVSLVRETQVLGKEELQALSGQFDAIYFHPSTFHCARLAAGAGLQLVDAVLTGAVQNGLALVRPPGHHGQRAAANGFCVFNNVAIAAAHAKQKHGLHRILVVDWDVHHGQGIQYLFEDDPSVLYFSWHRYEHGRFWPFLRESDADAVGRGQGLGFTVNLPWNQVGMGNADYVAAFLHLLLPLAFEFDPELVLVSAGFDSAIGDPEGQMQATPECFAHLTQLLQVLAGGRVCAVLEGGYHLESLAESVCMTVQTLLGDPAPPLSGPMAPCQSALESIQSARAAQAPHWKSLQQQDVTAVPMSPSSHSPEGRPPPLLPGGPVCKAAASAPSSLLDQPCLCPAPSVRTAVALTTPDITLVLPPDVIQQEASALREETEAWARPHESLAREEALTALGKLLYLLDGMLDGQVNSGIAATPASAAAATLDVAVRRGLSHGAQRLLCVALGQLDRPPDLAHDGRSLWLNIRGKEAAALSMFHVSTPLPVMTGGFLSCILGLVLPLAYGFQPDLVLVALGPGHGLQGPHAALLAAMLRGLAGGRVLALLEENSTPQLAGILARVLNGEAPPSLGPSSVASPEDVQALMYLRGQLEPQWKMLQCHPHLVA
Histone deacetylase 5, sequence (Q9UQL6 whole entry): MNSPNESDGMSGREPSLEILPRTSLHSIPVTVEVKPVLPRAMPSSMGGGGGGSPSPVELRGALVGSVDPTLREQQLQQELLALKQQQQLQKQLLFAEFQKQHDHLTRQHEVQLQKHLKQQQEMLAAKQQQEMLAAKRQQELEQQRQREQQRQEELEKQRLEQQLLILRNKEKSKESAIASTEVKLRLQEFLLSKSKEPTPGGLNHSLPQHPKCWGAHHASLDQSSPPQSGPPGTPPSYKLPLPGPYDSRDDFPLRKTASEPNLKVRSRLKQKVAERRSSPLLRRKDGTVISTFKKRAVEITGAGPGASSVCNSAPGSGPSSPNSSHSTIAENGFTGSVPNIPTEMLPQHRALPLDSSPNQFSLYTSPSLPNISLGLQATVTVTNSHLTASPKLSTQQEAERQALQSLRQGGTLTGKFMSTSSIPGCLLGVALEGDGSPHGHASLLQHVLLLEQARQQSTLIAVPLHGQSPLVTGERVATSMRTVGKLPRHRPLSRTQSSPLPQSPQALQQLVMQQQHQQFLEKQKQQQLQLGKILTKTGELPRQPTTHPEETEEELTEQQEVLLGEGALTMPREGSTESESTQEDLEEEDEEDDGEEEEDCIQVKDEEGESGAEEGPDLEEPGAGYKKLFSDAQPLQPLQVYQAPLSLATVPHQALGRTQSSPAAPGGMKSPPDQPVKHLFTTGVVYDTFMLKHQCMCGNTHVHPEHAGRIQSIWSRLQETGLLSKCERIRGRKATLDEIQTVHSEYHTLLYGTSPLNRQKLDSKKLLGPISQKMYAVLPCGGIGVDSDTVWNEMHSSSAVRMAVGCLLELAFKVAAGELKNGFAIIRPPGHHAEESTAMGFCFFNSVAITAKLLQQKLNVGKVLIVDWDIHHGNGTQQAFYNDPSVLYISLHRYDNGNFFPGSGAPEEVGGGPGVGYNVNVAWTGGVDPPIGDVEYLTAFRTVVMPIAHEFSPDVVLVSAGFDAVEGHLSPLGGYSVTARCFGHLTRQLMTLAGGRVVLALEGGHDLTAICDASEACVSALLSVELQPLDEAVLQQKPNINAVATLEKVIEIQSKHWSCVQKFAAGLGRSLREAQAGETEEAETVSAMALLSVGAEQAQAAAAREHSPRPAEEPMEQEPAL

SMILES: O=C(NO)c1ccc(CNC(=O)[C@H]2Cc3c([nH]c4ccccc34)[C@H](c3ccc(Cl)cc3)N2)cc1
- pIC50 [1]: 6.30
- pIC50 [2]: 8.57
- pIC50 (Histone deacetylase 2): 7.01
- pIC50 (Histone deacetylase 4): < 4.30
- pIC50 (Histone deacetylase 5): < 4.30
- pIC50 (Histone deacetylase 8): 6.53
- pIC50 (Histone deacetylase 9): < 4.30
- inhibition [3]: Active
- Cmax [4]: 1020 nM
- clearance [5]: 4.4 mL/min/kg
- Vd [6]: 0.81 L/kg
- AUC(0-t) [7]: 1.46 µM·h
- Cmax [8]: 1390 nM
- AUC(0-inf) [9]: 9.71 µM·h
- AUC(0-t) [10]: 9.6 µM·h
- half-life [11]: 205 min
- bioavailability [12]: 43.8%
